# Test results published in patent publication US20230028880A1, “CD38-BINDING AGENTS AND USES THEREOF” (Biohaven Therapeutics Ltd., priority 2019, published 2023).
# “And” between values parts separate entries of the source, which are not always exact repeats. Equal entries are not always repeated. “Also recorded” adds a separate entry of the source.
# Experiments:
# Daudi cells = experiment: Ternary binding assay: recruitment of PE-labeled human IgG1k to Daudi cells (flow cytometry, MFI); format: cell-based; conditions: duplicate columns
# Method in brief: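 Daudi cells, 100,000 per well, were suspended in flow buffer (1% BSA, 0.5 mM EDTA, PBS) containing 11.1 ug/mL PE-labeled human IgG1k and incubated with ½-log compound dilutions (8–12 concentrations) for 30 min at 37 °C. After two washes with 0.5% Tween 20 buffer, mean fluorescence was read by flow cytometry and fitted with a four-parameter variable-slope model.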
# [1] = test system: CD56+CD138- CIML NK cells; experiment: Patient bone marrow with CIML NK cells: NK cell fratricide; format: cell-based, human; conditions: CIML NK cells co-incubated with patient bone marrow for 4 hrs (FIG. 8)
# Description: (§1) Patient bone marrow (3 ml) and blood (20 ml) were shipped at ambient temperature from Discovery Biosciences. Bone marrow was diluted 1:1 with PBS, and […] of bone marrow-PBS mixture was aliquoted into 96 deep well plates. Bone marrow cells were incubated overnight until CIML cells were added next day.
# (§2) PBMC were isolated from blood by Ficoll density gradient centrifugation. PBMC were centrifuged at 400 g for 10 min and re-suspended in EasySep buffer. NK cells were isolated using NK cell isolation kits from […] Technologies according to kit's manufacturers' instructions.
# (§3) NK cells were re-suspended at 1×10^6 cells/ml in XVIVO15, 10% Human Serum, IL-15 (50 ng/ml), IL-12 (10 ng/ml), IL-18 (50 ng/ml), and incubated for 18 hrs. Following overnight incubation with cytokines, NK cells were washed twice with PBS 5% Human Serum Albumin, counted and re-suspended at a cell density of 2×10^5 cells/ml of XVIVO15 media. Twenty microliters (4000 cells) were added per each well containing 50 µl of bone marrow: PBS mixture. […] Control wells received XVIVO15 media. Well contents were mixed by pipetting up and down and plates were centrifuged at 400 g for 1 min.
# (§4) The assay was then incubated for 4 hrs at 37° C. 5% CO2. […] Finally, cells were re-suspended in 200 µl of FACS Buffer and analyzed using Attune Flow Cytometer. Data were analyzed using FlowJo software and graphed using GraphPad Prism.
# [2] = test system: multiple myeloma patient bone marrow plasma cells (CD38+ CD138+); experiment: Patient bone marrow with autologous CIML NK cells: reduction of plasma cells; format: cell-based, human; conditions: 4 hr, IVIG 10 ug/ml (FIG. 7)
# Description: as §1, §2, §3, §4
smiles,measurement,setting,value
CCCCC[C@@H]1NC(=O)[C@H](CCCNC(=N)N)NC(=O)[C@H](C)NC(=O)CSC[C@@H](C(=O)NCCOCCOCCOCCOCCOCCOCCn2nnc3c2CCC2C(CC3)C2COC(=O)N2CCC(C(=O)NCC(=O)N[C@H](CCC(=O)N[C@H](CCC(=O)N[C@H](CCC(=O)O)C(=O)N[C@H](CCC(=O)N[C@H](CCC(=O)NCC(=O)NCC(=O)N[C@@H](CC(=O)O)C(=O)N[C@H]3CSSC[C@@H](C(=O)N[C@H](C(=O)O)[C@@H](C)O)NC(=O)[C@H](Cc4c[nH]c5ccccc45)NC(=O)[C@H](C(C)C)NC(=O)[C@H](CC(C)C)NC(=O)[C@H](CCC(=O)O)NC(=O)CNC(=O)[C@H](CC(C)C)NC(=O)[C@H](Cc4c[nH]cn4)NC(=O)[C@H](Cc4c[nH]c5ccccc45)NC(=O)[C@H](C)NC3=O)C(=O)O)C(=O)O)C(=O)O)C(=O)O)CC2)NC(=O)[C@H](CC(=O)O)NC(=O)[C@H](CCCCC)NC(=O)[C@H](Cc2ccc(-c3ccccc3)cc2)NC(=O)[C@H](CC(C)C)NC(=O)[C@H](C(C)C)NC(=O)CNC(=O)[C@H](CC(=O)O)NC(=O)[C@H](Cc2c[nH]cn2)NC(=O)[C@H](Cc2ccc(O)cc2)NC1=O (stereo partly shown) [I-17],"MFI, recruitment of PE-labeled human IgG1k to Daudi cells",Daudi cells; compound 0.03 nM,2516 and 2391
same,"MFI, recruitment of PE-labeled human IgG1k to Daudi cells",Daudi cells; compound 0.1 nM,2322 and 2622
same,"MFI, recruitment of PE-labeled human IgG1k to Daudi cells",Daudi cells; compound 0.3 nM,2387 and 2457
same,"MFI, recruitment of PE-labeled human IgG1k to Daudi cells",Daudi cells; compound 1 nM,3272 and 2451
same,"MFI, recruitment of PE-labeled human IgG1k to Daudi cells",Daudi cells; compound 3 nM,2516 and 2680
same,"MFI, recruitment of PE-labeled human IgG1k to Daudi cells",Daudi cells; compound 10 nM,7119 and 4086
same,"MFI, recruitment of PE-labeled human IgG1k to Daudi cells",Daudi cells; compound 30 nM,3869 and 5244
same,"MFI, recruitment of PE-labeled human IgG1k to Daudi cells",Daudi cells; compound 100 nM,7575 and 6333
same,"MFI, recruitment of PE-labeled human IgG1k to Daudi cells",Daudi cells; compound 300 nM,7514 and 8562
same,"MFI, recruitment of PE-labeled human IgG1k to Daudi cells",Daudi cells; compound 1000 nM,10015 and 9697
same,"MFI, recruitment of PE-labeled human IgG1k to Daudi cells",Daudi cells; compound 3000 nM,9069 and 9922
same,NK cell numbers / NK cell fratricide,[1],NK cell numbers did not change; also recorded: No or low level of undesired NK cell fratricide
same,reduction in the frequencies of CD38+ CD138+ cells in patient bone marrow,[2],effectively reduced frequency of plasma cells; also recorded: can reduce the number of plasma cells
